Data taken from ChEMBL document CHEMBL2169843 (J Med Chem, 2012).

target: Sigma non-opioid intracellular receptor 1 (Cavia porcellus, UniProt Q60492); assay: Displacement of [3H]-(+)-pentazocine from sigma-1 receptor in guinea pig brain homogenates; assay type: tissue-based
Sequence (Q60492 whole entry): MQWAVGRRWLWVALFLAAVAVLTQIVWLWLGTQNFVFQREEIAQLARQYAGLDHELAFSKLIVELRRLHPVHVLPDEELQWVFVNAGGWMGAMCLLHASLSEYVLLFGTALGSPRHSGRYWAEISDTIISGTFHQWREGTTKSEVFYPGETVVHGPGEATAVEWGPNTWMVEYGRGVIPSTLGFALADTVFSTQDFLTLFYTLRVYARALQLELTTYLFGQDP

Compound	Ki [µM]
CCC1(c2ccccc2)OCCC(CCN)O1 (racemic)	> 10
NCC[C@@H]1CCO[C@H](c2ccccc2)O1	> 10
CCC[C@]1(c2ccccc2)OCC[C@H](CCN)O1	> 10
CC[C@]1(c2ccccc2)OCC[C@H](CCN)O1	> 10
CC[C@@]1(c2ccccc2)OCC[C@@H](CCN)O1	> 10
CC(C)(C)[C@@]1(c2ccccc2)OCC[C@@H](CCN)O1	> 10
CC(C)(C)[C@]1(c2ccccc2)OCC[C@H](CCN)O1	> 10
C[C@]1(c2ccccc2)OCC[C@H](CCN)O1	> 10
NCC[C@H]1CCO[C@@H](c2ccccc2)O1	> 10
C[C@@]1(c2ccccc2)OCC[C@@H](CCN)O1	> 10
NCCC1CCOC(c2ccccc2)O1 (racemic)	> 10
CCC[C@@]1(c2ccccc2)OCC[C@@H](CCN)O1	> 10

Now those with a lower Ki, led by results:

Ki [µM]	Compound
0.253	CC(C)(C)[C@]1(c2ccccc2)OCC[C@H](CCNCc2ccccc2)O1
0.136	CCC[C@]1(c2ccccc2)OCC[C@H](CCNCc2ccccc2)O1
0.128	CC(C)(C)[C@@]1(c2ccccc2)OCC[C@@H](CCNCc2ccccc2)O1
0.072	CCC[C@@]1(c2ccccc2)OCC[C@@H](CCNCc2ccccc2)O1
0.05	c1ccc(CNCC[C@H]2CCO[C@@H](c3ccccc3)O2)cc1
0.028	CC[C@]1(c2ccccc2)OCC[C@H](CCNCc2ccccc2)O1
0.02	CC[C@@]1(c2ccccc2)OCC[C@@H](CCNCc2ccccc2)O1
0.017	C[C@@]1(c2ccccc2)OCC[C@@H](CCNCc2ccccc2)O1
0.011	C[C@]1(c2ccccc2)OCC[C@H](CCNCc2ccccc2)O1
0.006	c1ccc(CNCC[C@@H]2CCO[C@H](c3ccccc3)O2)cc1
